Measurements reported in USRE46873E1, “Multi-targeted RNAi therapeutics for scarless wound healing of skin” (Sirnaomics, Inc., priority 2007, dated 2018).
Bridges are numbered along the chain shown (N, C = ends). Roman numbers before positions name the chains, in order. Where no end group is shown, it is not given here.

Tests used:
Hoxb13 mRNA in PC3 cells = test: siRNA transfection of PC3 cells, RT-PCR of Hoxb13; assay type: cell-based; conditions: human PC3 cells
Description: (§1) • 4. Human prostate carcinoma cell-PC3 was used for detection of the gene expression knockdown. A series of standard transfection experiments were carried out using the protocol provided by the vendor (Invitrogen) with the siRNA duplexes identified in step 2 accordingly. • 5. Total RNA samples were isolated and subjected to RT-PCR analysis using the respective PCR primers identified in step 3 above.
(§2) Among ten in silico designed 25 mer siRNA sequences, we first pick three for testing. Before testing those siRNA oligos (synthesized by Qiagen) in the corresponding cells, such as human PC-3 cell (a bone metastasis of a […] prostatic adenocarcinoma), we first use RT-PCR to survey the presence of the target gene expression in the total RNA samples (FIG. 14). […] We further surveyed the expression of these three genes in the mouse C166 cell. […] Therefore, we can transfect the three selected siRNA oligos targeting a particular gene into the corresponding cell and then evaluate their gene silencing potential, followed by total RNA isolation and RT-PCR analysis. Three doses were used for each transfection on the 6-well plate: 0.5 ug, 1 ug and 2 ug, with Lipo2000 following the vendor's direction. […] The RT-PCR products were also subjected to the gel electrophoreses and quantification. […]

lung, liver, and kidney = test: In vivo toxicity of HK peptides after intravenous administration; conditions: mice, 1000 μg, 24 h after injection; preliminary studies
Description: H2K4b, had the strongest antifungal effect reducing growth of C. albicans to nearly 40% at 37.5 μg/ml (3.4 μM) and 85% at 50 μg/ml (4.5 μM). […] Relative to in vitro toxicity, the in vivo toxicity differences among these peptides are more striking. […] Of the three organs examined, the kidney appears to be the most sensitive to these peptides. Relative to H2K4b, a decrease in cationic charge in the terminal branches of H3K4b and H3K(G)K4b may, in part, account for their reduced toxicity in vitro and in vivo; the reduction in charge may decrease their interaction with negatively charged cell membranes. With eight additional glycines, H3K(G)4b polymer has a reduced charge per total number of amino acids relative to H3K4b. Because there are five lysines in each terminal arm of H3K(G)4b and H3K4b, however, we doubt that minimal charge differences readily explain the reduced toxicity of H3K(G)4b relative to H3K4b. An alternative possibility is that glycines may disrupt alpha helices in the terminal branches, thereby enhancing the flexibility of the polymer and allowing enzymatic degradation. Several secondary structure programs for peptides predict a marked difference in the alpha helical content between a glycine containing peptide, H3K(G)4b, and the non-glycine containing peptides, H2K4b and H3K4b.

TGF-β1 mRNA in PC3 cells = test: siRNA transfection of PC3 cells, RT-PCR of TGF-beta1; assay type: cell-based; conditions: human PC3 cells
Description: as §1, §2

Cox-2 mRNA in PC3 cells = test: siRNA transfection of PC3 cells, RT-PCR of Cox-2; assay type: cell-based; conditions: human PC3 cells
Description: as §1, §2

hmHX-1: 25-mer siRNA duplex targeting human and mouse HoxB13; sense 5′-GGUGGCUGGAACAGCCAGAUGUGUU-3′ (SEQ ID NO: 7) (antisense AACACAUCUGGCUGUUCCAGCCACC; listed as RNA, further chemistry not given here)
Hoxb13 gene expression / silencing activity (RT-PCR) (Hoxb13 mRNA in PC3 cells): potent

I: KHHHKHHHKHHHKHHHKKKK-NH2 / II: KHHHKHHHKHHHKHHHK / III: KHHHKHHHKHHHKHHHK / IV: KHHHKHHHKHHHKHHHK (amide I:18-IV:C, I:19-III:C, I:20-II:C) [H3K4b]
organ toxicity (lung, liver, and kidney): minimally toxic to the kidney

hmTF-2: 25-mer siRNA duplex targeting human and mouse TGF-β1; sense 5′-CCCAAGGGCUACCAUGCCAACUUCU-3′ (SEQ ID NO: 11) (antisense AGAAGUUGGCAUGGUAGCCCUUGGG; listed as RNA, further chemistry not given here)
TGF-β1 gene expression / silencing activity (RT-PCR) (TGF-β1 mRNA in PC3 cells): potent

hmCX-1: 25-mer siRNA duplex targeting human and mouse COX-2; sense 5′-GGUCUGGUGCCUGGUCUGAUGAUGU-3′ (SEQ ID NO: 9) (antisense ACAUCAUCAGACCAGGCACCAGACC; listed as RNA, further chemistry not given here)
Cox-2 gene expression / silencing activity (RT-PCR) (Cox-2 mRNA in PC3 cells): potent
